Measurements reported in publication PMC10092094 (Chemmedchem, 2022).
“Also recorded” adds a separate entry of the source.

How the values were obtained:
OGG1 [1] = molecular target: T1, OGG1 (Homo sapiens, UniProt O15527); test: biochemical
OGG1 [2] = molecular target: T1, OGG1; test: Differential scanning fluorimetry; assay type: binding
[3] = IC50 (CI95), biochemical inhibition, confidence interval 95 in parentheses
[4] = confidence interval 95 in parentheses
[5] = IC50, biochemical inhibition, single replicate

T1 sequence (O15527 whole entry): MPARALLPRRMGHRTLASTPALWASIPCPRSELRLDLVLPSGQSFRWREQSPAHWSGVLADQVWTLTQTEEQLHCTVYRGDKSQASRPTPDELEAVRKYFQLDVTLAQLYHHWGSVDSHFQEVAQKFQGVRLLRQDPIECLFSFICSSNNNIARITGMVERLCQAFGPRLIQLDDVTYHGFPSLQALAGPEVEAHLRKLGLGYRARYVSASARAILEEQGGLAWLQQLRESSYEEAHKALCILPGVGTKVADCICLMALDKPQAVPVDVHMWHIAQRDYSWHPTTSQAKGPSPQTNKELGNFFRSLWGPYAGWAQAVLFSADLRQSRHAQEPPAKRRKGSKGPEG

| SMILES | IC50 (OGG1 [1]; [3]) | DSF stabilization (ΔT) (OGG1 [2]) | further results |
| --- | --- | --- | --- |
| Cc1ccc(NC(=O)N2CCC(n3c(=O)[nH]c4ccccc43)CC2)cc1 [Compound 4, N‐(4‐methylphenyl)‐4‐(2‐oxo‐2,3‐dihydro‐1H‐1,3‐benzodiazol‐1‐yl)piperidine‐1‐carboxamide] | 19900 nM | 3.1 K | – |
| O=C(Nc1ccc(Cl)cc1)N1CCC(n2c(=O)[nH]c3ccccc32)CC1 [Compound 6, N‐(4‐chlorophenyl)‐4‐(2‐oxo‐2,3‐dihydro‐1H‐1,3‐benzodiazol‐1‐yl)piperidine‐1‐carboxamide] | 5500 nM | 4.6 K | IC50 (OGG1 [1]; IC50 of HTS hit, concentration-response of screening hits): 10000 nM |
| O=C(Nc1ccc(Br)cc1)N1CCC(n2c(=O)[nH]c3ccccc32)CC1 [Compound 7, N‐(4‐bromophenyl)‐4‐(2‐oxo‐2,3‐dihydro‐1H‐1,3‐benzodiazol‐1‐yl)piperidine‐1‐carboxamide] | 7000 nM | 2.1 K | – |
| O=C(Nc1ccc(I)cc1)N1CCC(n2c(=O)[nH]c3ccccc32)CC1 [Compound 8, N‐(4‐iodophenyl)‐4‐(2‐oxo‐2,3‐dihydro‐1H‐1,3‐benzodiazol‐1‐yl)piperidine‐1‐carboxamide] | 2900 nM | 2.4 K | – |
| O=C(Nc1ccc(Cl)c(Cl)c1)N1CCC(n2c(=O)[nH]c3ccccc32)CC1 [Compound 9, N‐(3,4‐dichlorophenyl)‐4‐(2‐oxo‐2,3‐dihydro‐1H‐1,3‐benzodiazol‐1‐yl)piperidine‐1‐carboxamide] | 2900 nM | 4.7 K | – |
| O=C(Nc1ccccc1)N1CCC(n2c(=O)[nH]c3cc(Cl)ccc32)CC1 [Compound 11, 4‐(5‐chloro‐2‐oxo‐2,3‐dihydro‐1H‐1,3‐benzodiazol‐1‐yl)‐N‐phenylpiperidine‐1‐carboxamide] | – | 3.3 K | – |
| O=C(Nc1cccc(F)c1)N1CCC(n2c(=O)[nH]c3cc(Cl)ccc32)CC1 [Compound 12, 4‐(5‐chloro‐2‐oxo‐2,3‐dihydro‐1H‐1,3‐benzodiazol‐1‐yl)‐N‐(3‐fluorophenyl)piperidine‐1‐carboxamide] | 35100 nM | 2.4 K | – |
| O=C(Nc1ccc(F)cc1)N1CCC(n2c(=O)[nH]c3cc(Cl)ccc32)CC1 [Compound 15, 4‐(5‐chloro‐2‐oxo‐2,3‐dihydro‐1H‐1,3‐benzodiazol‐1‐yl)‐N‐(4‐fluorophenyl)piperidine‐1‐carboxamide] | – | – | IC50 (CI95), biochemical inhibition (OGG1 [1]; [4]): no effect |
| O=C(Nc1ccc(Cl)cc1)N1CCC(n2c(=O)[nH]c3cc(Cl)ccc32)CC1 [Compound 16, 4‐(5‐chloro‐2‐oxo‐2,3‐dihydro‐1H‐1,3‐benzodiazol‐1‐yl)‐N‐(4‐chlorophenyl)piperidine‐1‐carboxamide] | 2000 nM | 3.8 K | – |
| O=C(Nc1ccc(Br)cc1)N1CCC(n2c(=O)[nH]c3cc(Cl)ccc32)CC1 [Compound 17, 4‐(5‐chloro‐2‐oxo‐2,3‐dihydro‐1H‐1,3‐benzodiazol‐1‐yl)‐N‐(4‐bromophenyl)piperidine‐1‐carboxamide] | – | 4.1 K | IC50 (OGG1 [1]; [5]): 1600 nM |
| O=C(Nc1ccc(I)cc1)N1CCC(n2c(=O)[nH]c3cc(Cl)ccc32)CC1 [Compound 18, 4‐(5‐chloro‐2‐oxo‐2,3‐dihydro‐1H‐1,3‐benzodiazol‐1‐yl)‐N‐(4‐iodophenyl)piperidine‐1‐carboxamide] | – | 1.6 K | – |
| O=C(Nc1ccc(Cl)c(Cl)c1)N1CCC(n2c(=O)[nH]c3cc(Cl)ccc32)CC1 [Compound 19, 4‐(5‐chloro‐2‐oxo‐2,3‐dihydro‐1H‐1,3‐benzodiazol‐1‐yl)‐N‐(3,4‐dichlorophenyl)piperidine‐1‐carboxamide] | – | 3.1 K | – |
| Cc1cccc2c1[nH]c(=O)n2C1CCN(C(=O)Nc2ccc(I)cc2)CC1 [Compound 20, 4‐(4‐methyl‐2‐oxo‐2,3‐dihydro‐1H‐1,3‐benzodiazol‐1‐yl)‐N‐(4‐iodophenyl)piperidine‐1‐carboxamide] | 630 nM | 3.8 K | – |
| Cc1ccc2c(c1)[nH]c(=O)n2C1CCN(C(=O)Nc2ccc(I)cc2)CC1 [Compound 21, 4‐(5‐methyl‐2‐oxo‐2,3‐dihydro‐1H‐1,3‐benzodiazol‐1‐yl)‐N‐(4‐iodophenyl)piperidine‐1‐carboxamide] | 1700 nM | 3.8 K | – |
| Cc1ccc2[nH]c(=O)n(C3CCN(C(=O)Nc4ccc(I)cc4)CC3)c2c1 [Compound 22, 4‐(6‐methyl‐2‐oxo‐2,3‐dihydro‐1H‐1,3‐benzodiazol‐1‐yl)‐N‐(4‐iodophenyl)piperidine‐1‐carboxamide] | – | – | IC50 (CI95), biochemical inhibition (OGG1 [1]; [4]): inactivity; also recorded: no effect |
| Cc1cccc2[nH]c(=O)n(C3CCN(C(=O)Nc4ccc(I)cc4)CC3)c12 [Compound 23, 4‐(7‐methyl‐2‐oxo‐2,3‐dihydro‐1H‐1,3‐benzodiazol‐1‐yl)‐N‐(4‐iodophenyl)piperidine‐1‐carboxamide] | – | 2.2 K | IC50 (OGG1 [1]; [5]): 8700 nM |
| O=C(Nc1ccc(I)cc1)N1CCC(n2c(=O)[nH]c3c(F)cccc32)CC1 [Compound 24, 4‐(4‐fluoro‐2‐oxo‐2,3‐dihydro‐1H‐1,3‐benzodiazol‐1‐yl)‐N‐(4‐iodophenyl)piperidine‐1‐carboxamide] | 2200 nM | 3.9 K | – |
| COc1cccc2c1[nH]c(=O)n2C1CCN(C(=O)Nc2ccc(I)cc2)CC1 [Compound 27, 4‐(4‐methoxy‐2‐oxo‐2,3‐dihydro‐1H‐1,3‐benzodiazol‐1‐yl)‐N‐(4‐iodophenyl)piperidine‐1‐carboxamide] | 910 nM | 4.2 K | – |
| CN(C(=O)N1CCC(n2c(=O)[nH]c3c(Br)cccc32)CC1)c1ccc(Cl)c(Cl)c1 [Compound 29, 4‐(4‐bromo‐2‐oxo‐2,3‐dihydro‐1H‐1,3‐benzodiazol‐1‐yl)‐N‐(3,4‐dichlorophenyl)‐N‐methylpiperidine‐1‐carboxamide] | – | – | Activity against OGG1 (in words) (OGG1 [1]): no or a very low activity |
| O=C(Cc1ccc(I)cc1)N1CCC(n2c(=O)[nH]c3c(Br)cccc32)CC1 [Compound 30, 4‐bromo‐1‐{1‐[2‐(4‐iodophenyl)acetyl]piperidin‐4‐yl}‐2,3‐dihydro‐1H‐1,3‐benzodiazol‐2‐one] | – | – | Activity against OGG1 (in words) (OGG1 [1]): no or a very low activity |
| O=C(Oc1ccc(Cl)cc1)N1CCC(n2c(=O)[nH]c3c(Br)cccc32)CC1 [Compound 31, 4‐chlorophenyl 4‐(4‐bromo‐2‐oxo‐2,3‐dihydro‐1H‐1,3‐benzodiazol‐1‐yl)piperidine‐1‐carboxylate] | – | – | Activity against OGG1 (in words) (OGG1 [1]): no or a very low activity |
| O=C(NC1CCCCC1)N1CCC(n2c(=O)[nH]c3c(Br)cccc32)CC1 [Compound 32, 4‐(4‐bromo‐2‐oxo‐2,3‐dihydro‐1H‐1,3‐benzodiazol‐1‐yl)‐N‐cyclohexylpiperidine‐1‐carboxamide] | – | – | Activity against OGG1 (in words) (OGG1 [1]): only weakly active |
| O=C(c1ccc(I)cc1)N1CCC(n2c(=O)[nH]c3c(Br)cccc32)CC1 [Compound 33, 4‐bromo‐1‐[1‐(4‐iodobenzoyl)piperidin‐4‐yl]‐2,3‐dihydro‐1H‐1,3‐benzodiazol‐2‐one] | – | – | Activity against OGG1 (in words) (OGG1 [1]): no or a very low activity |
| O=c1[nH]c2c(Br)cccc2n1C1CCN(S(=O)(=O)c2ccc(I)cc2)CC1 [Compound 34, 4‐bromo‐1‐[1‐(4‐iodobenzenesulfonyl)piperidin‐4‐yl]‐2,3‐dihydro‐1H‐1,3‐benzodiazol‐2‐one] | – | – | Activity against OGG1 (in words) (OGG1 [1]): no or a very low activity |
| COc1ncc(NC(=O)N2CCC(n3c(=O)[nH]c4c(Br)cccc43)CC2)cc1C [Compound 35, 4‐(4‐bromo‐2‐oxo‐2,3‐dihydro‐1H‐1,3‐benzodiazol‐1‐yl)‐N‐(6‐methoxy‐5‐methylpyridin‐3‐yl)piperidine‐1‐carboxamide] | – | – | Activity against OGG1 (in words) (OGG1 [1]): only weakly active |
| O=C(Nc1ccc(I)cc1)N1CCC(n2cnc3c(Br)cccc32)CC1 [Compound 41, 4‐(4‐bromo‐1H‐1,3‐benzodiazol‐1‐yl)‐N‐(4‐iodophenyl)piperidine‐1‐carboxamide] | – | – | Activity against OGG1 (in words) (OGG1 [1]): neither of which had a pronounced effect on inhibiting or stabilizing OGG1 |
| O=C(Nc1ccc(I)cc1)N1CCC(n2c(=O)oc3c(Br)cccc32)CC1 [Compound 42, 4‐(7‐bromo‐2‐oxo‐2,3‐dihydro‐1,3‐benzoxazol‐3‐yl)‐N‐(4‐iodophenyl)piperidine‐1‐carboxamide] | – | – | Activity against OGG1 (in words) (OGG1 [1]): neither of which had a pronounced effect on inhibiting or stabilizing OGG1 |
| O=C(Nc1ccc([N+](=O)[O-])cc1)N1CCC(n2c(=O)[nH]c3c(Br)cccc32)CC1 [Compound 48, 4‐(4‐bromo‐2‐oxo‐2,3‐dihydro‐1H‐1,3‐benzodiazol‐1‐yl)‐N‐(4‐nitrophenyl)piperidine‐1‐carboxamide] | – | – | IC50 (CI95), biochemical inhibition (OGG1 [1]; [4]): no effect |
| CCOC(=O)c1ccc(NC(=O)N2CCC(n3c(=O)[nH]c4c(Br)cccc43)CC2)cc1 [Compound 50, Ethyl‐4‐{[4‐(4‐bromo‐2‐oxo‐2,3‐dihydro‐1H‐1,3‐benzodiazol‐1‐yl)‐piperidine‐1‐carbonyl]‐amino}‐benzoate] | – | – | IC50 (CI95), biochemical inhibition (OGG1 [1]; [4]): no effect |
| CC(=O)Nc1ccc(NC(=O)N2CCC(n3c(=O)[nH]c4c(Br)cccc43)CC2)cc1 [Compound 51, 4‐(4‐bromo‐2‐oxo‐2,3‐dihydro‐1H‐1,3‐benzodiazol‐1‐yl)‐N‐(4‐acetamidophenyl)piperidine‐1‐carboxamide] | – | – | IC50 (CI95), biochemical inhibition (OGG1 [1]; [4]): no effect |

More lines, main results first:

| IC50 (OGG1 [1]; [3]) | DSF stabilization (ΔT) (OGG1 [2]) | SMILES | further results |
| --- | --- | --- | --- |
| 350 nM | 4.2 K | O=C(Nc1ccc(Cl)cc1)N1CCC(n2c(=O)[nH]c3c(Br)cccc32)CC1 [Compound 43, 4‐(4‐bromo‐2‐oxo‐2,3‐dihydro‐1H‐1,3‐benzodiazol‐1‐yl)‐N‐(4‐chlorophenyl)piperidine‐1‐carboxamide] | – |
| 32200 nM | – | CN(C)c1ccc(NC(=O)N2CCC(n3c(=O)[nH]c4c(Br)cccc43)CC2)cc1 [Compound 52, 4‐(4‐bromo‐2‐oxo‐2,3‐dihydro‐1H‐1,3‐benzodiazol‐1‐yl)‐N‐[4‐(dimethylamino)phenyl]piperidine‐1‐carboxamide] | – |
| 2000 nM | – | COc1cc(NC(=O)N2CCC(n3c(=O)[nH]c4c(OC)cccc43)CC2)ccc1C [TH9525, 4‐(4‐methoxy‐2‐oxo‐2,3‐dihydro‐1H‐1,3‐benzodiazol‐1‐yl)‐N‐(3‐methoxy‐4‐methylphenyl)piperidine‐1‐carboxamide] | – |
